Measurements published in patent publication US10829509B2, “Pure heptasulfated disaccharides having improved oral bioavailability” (OPKO Pharmaceuticals, LLC., priority 2016, dated 2020).
“Also recorded” adds a separate entry of the source.

Experiments:
[1] = 0.5 mg/kg QD x 4 days oral versus i.v., sheep, listed as 2,5-anhydro-3-O-(α-L-idopyranosyl)-D-mannitol hepta-O-sulfate sodium salt
[2] = system: allergic sheep challenged with Ascaris suum antigen; assay: Post-antigen airway hyperresponsiveness (AHR), PD400 of inhaled carbachol, in allergic sheep; type: in vivo
Method: (§1) Pulmonary airflow resistance was measured by taking allergic sheep previously verified as dual bronchoconstrictor responders to Ascaris suum antigen. The sheep were intubated with a cuffed nasotracheal tube and pulmonary airflow resistance (RL) was measured by the esophageal balloon catheter technique. Airway responsiveness was determined by first securing cumulative dose response curves to inhaled carbachol (a constrictor agonist) by measuring RL before and after inhalation of buffered saline and after each administration of 10 breaths of increasing concentrations of carbachol (0.25, 0.5, 1.0, 2.0 and 4.0% wt/vol solution). Airway responsiveness was measured by determining the cumulative provocation dose (PD400) of carbachol (in breath units) that increased RL to 400% above baseline. One breath unit was defined as one breath of 1% carbachol solution.
To assess airway responsiveness, cumulative dose response curves to inhaled carbachol were performed by measuring RL before and after inhalation of buffered saline and after each administration of 10 breaths of increasing concentrations of carbachol (0.25, 0.5, 1.0, 2.0, and 4.0% wt/vol solution). Airway responsiveness was measured by determining the cumulative provocation dose (PD400) of carbachol (in breath units) that increased RL to 400% above baseline. One breath unit was defined as one breath of 1% carbachol solution.
(§2) For airway studies, each animal's baseline airway responsiveness (PD400) was determined and then, on different experimental days, the test sheep underwent airway challenge with Ascaris suum antigen. RL was measured to establish baseline, then measured again immediately after antigen challenge and hourly for an eight hour period and then a post challenge PD400 was measured 24 hours after antigen challenge. In each of the Figures presented herein, FIGS. 1A, 2A, 3A etc. present day two data measured on an hourly basis for the eight hour period and contain control data (closed circles) and drug treatment data (open circles or triangles (closed or open)). The drug treatment experiments were conducted on the same animals used in the control studies but after a period of several weeks following the day 3 PD400 measurements. FIGS. 1B, 2B, 3B etc. contain the day one baseline PD400 data and day three PD400 data following antigen challenge in control or drug treated animals.
(§3) Data were expressed or may be expressed as (a) mean+/−SE % change of RL and (b) PD400 in breath units. Data were also expressed as (c) % protection of Early Airway Response (EAR, for 0-4 hours) and Late Airway Response (LAR, for 4-8 hours), as estimated by area under the curve for EAR and LAR respectively. And (d) AHR %
Thus, the numbers in the Figures as presented were obtained by the formula: Baseline PD400-drugantigenPD400 was x-y;Baseline PD400-ControlantigenPD400 was x-z. x-y/x-z×100=n. 100−n=X % protection in AHR.

[3] = system: allergic sheep challenged with Ascaris suum antigen; assay: Antigen-induced early and late airway responses (EAR, LAR), pulmonary airflow resistance RL, in allergic sheep; type: in vivo
Method: as §1
To illustrate the effectiveness of the formulations according to the invention to treat and alleviate allergen related diseases and conditions, including but not limited to the specific diseases and conditions recited herein, sheep were assessed in multiple experiments which compared various formulations containing no active ingredient to animals which were provided formulations comprising a compound of formula I (SSS-02). To measure pulmonary airflow resistance, the sheep were intubated with a cuffed nasotracheal tube and pulmonary airflow resistance (RL) was measured by the esophageal balloon catheter technique. These methods are accepted and well known methods found in the literature.
as §2, §3

[4] = inhaled multiple dose 10 mg x 3, n=6
[5] = inhaled single dose 10 mg, 30 min before antigen, n=5
[6] = single oral dose 0.5 mg/kg, 90 min before antigen, n=5
[7] = single oral dose 1 mg/kg, 90 min before antigen, n=5
[8] = i.v. 0.5 mg/kg QD for 4 days, last dose 90 min before antigen, n=5
[9] = inhaled multiple dose 10 mg x 3, n=6, sodium salt
[10] = oral 0.5 mg/kg BID x 7 doses, last dose 90 min before antigen, n=5
[11] = oral 0.5 mg/kg x 3 doses, one every 12 h, antigen 90 min after last dose, n=8
[12] = oral 1 mg/kg x 3 doses, one every 12 h, antigen 90 min after last dose, n=8
[13] = oral liquid 0.5 mg/kg QD for 4 days, last dose 90 min before antigen, n=5

O=S(=O)([O-])OC[C@@H]1O[C@@H](O[C@H]2[C@H](OS(=O)(=O)[O-])[C@@H](COS(=O)(=O)[O-])O[C@@H]2COS(=O)(=O)[O-])[C@H](OS(=O)(=O)[O-])[C@@H](OS(=O)(=O)[O-])[C@@H]1OS(=O)(=O)[O-].[Na+].[Na+].[Na+].[Na+].[Na+].[Na+].[Na+] [SSS-056-01, 2,5-anhydro-3-O-(α-L-idopyranose)-D-mannitol-hepta-O-sulfate-hepta sodium salt]
bioavailability of oral dose versus intravenous dose [1]: comparable bioavailability | inhibition of AHR ([2]; i.v. 0.5 mg/kg QD for 4 days, PD400 24 h post-antigen, n=5): 100% | inhibition of AHR [2, 4]: 100% | inhibition of AHR [2, 5]: 100% | inhibition of AHR ([2]; oral 0.5 mg/kg BID x 7 doses, n=5): 100% | inhibition of AHR ([2]; oral 0.5 mg/kg x 3 doses, one every 12 h, n=8): 100% | inhibition of AHR ([2]; oral 1 mg/kg x 3 doses, one every 12 h, n=8): 100% | inhibition of AHR ([2]; oral liquid 0.5 mg/kg QD for 4 days, PD400 24 h post-antigen, n=5): 100% | inhibition of AHR [2, 6]: 100% | inhibition of AHR [2, 7]: 100% | inhibition of EAR [3, 8]: 77% | inhibition of LAR [3, 8]: 92% | inhibition of LAR [3, 4]: 75% | effect on EAR [3, 9]: without an effect; also recorded: no significant cumulative effect | effect on LAR (in words) [3, 9]: did have an effect on LAR; also recorded: did inhibit LAR | effect on EAR, LAR and AHR ([3]; inhaled single dose 5 mg, 30 min before antigen, n=5): ineffective | effect on EAR [3, 5]: without an effect | inhibition of LAR [3, 5]: 75% | effect on EAR, LAR and AHR ([3]; oral 0.25 mg/kg x 3 doses, one every 12 h, antigen 90 min after last dose, n=8): ineffective | inhibition of EAR [3, 10]: 76% | inhibition of LAR [3, 10]: 96% | inhibition of EAR [3, 11]: 30% | inhibition of LAR [3, 11]: 85% | inhibition of EAR [3, 12]: 54% | inhibition of LAR [3, 12]: 87% | inhibition of EAR [3, 13]: 77% | inhibition of LAR [3, 13]: 95% | effect on EAR, LAR and AHR ([3]; single oral dose 0.25 mg/kg, 90 min before antigen, n=5): ineffective | effect on EAR [3, 6]: without an effect | inhibition of LAR [3, 6]: 71% | effect on EAR [3, 7]: without an effect | inhibition of LAR [3, 7]: 77%
